How the values were obtained:
[1] = tested on: mouse brain neuroblastoma cells (Neuro2a); assay: Inhibition of ROS generation (hydrogen peroxide treatment), DCFH-DA flow cytometry; format: cell-based
Method: A medium used was a DMEM medium (Dulbecco's Modified Eagle Medium; brand: Gibco) supplemented with 10 vol % of fetal bovine serum (FBS; brand: Gibco) and 1 vol % of penicillin/streptomycin (brand: Gibco), hereinafter referred to as a cell medium. A DCFH-DA solution used was a reaction solution prepared by dissolving 2,7-dichloro-dihydro-fluorescein diacetate (DCFH-DA, product code SI-D6883, purchased from Sigma) in dimethyl sulfoxide (DMSO, purchased from Sigma, product code SI-D6883-50MG). […]
Flow cytometry (manufacturer: Beckman; Catalog No. 660519) was used to detect a fluorescence signal of DCFH-DA in the cell solutions to be assayed in each group. The excitation wavelength of fluorescence detection used was 450 nm to 490 nm, and the emission wavelength was 510 nm to 550 nm. Since DCFH-DA will first be hydrolyzed to DCFH (dichloro-dihydro-fluorescein) after entering the Neuro2a cells, and then oxidized by reactive oxygen species (ROS) into DCF (dichloro-fluorescein) that emits green fluorescence, the fluorescence intensity of the Neuro2a cells treated with the DCFH-DA can reflect the content of reactive oxygen species (ROS) in the Neuro2a cells, and from this, the ratio of the number of cells with highly expressed reactive oxygen species (ROS) in the Neuro2a cells to the number of original cells can be known.

[2] = tested on: mouse brain neuroblastoma cells (Neuro2a); assay: Mitochondrial activity (JC-1 mitochondrial membrane potential, flow cytometry); format: cell-based; conditions: 0.25 vol %, 24 hours, control group = 100%
From the text: A medium used was a DMEM medium (Dulbecco's Modified Eagle Medium; brand: Gibco) supplemented with 10 vol % of fetal bovine serum (FBS; brand: Gibco) and 1 vol % of penicillin/streptomycin (brand: Gibco), hereinafter referred to as a cell medium. A mitochondrial activity test method used was to use a mitochondrial membrane potential detection kit (BD™ MitoScreen (JC-1) kit, model 551302) to measure the mitochondrial membrane potential and perform mitochondrial activity analysis. The mitochondrial membrane potential detection kit included a JC-1 stain (freeze-dried) and a 10×assay buffer. Before use, the 10×assay buffer was diluted 10 times with 1×PBS to form a 1×assay buffer. 130 μL of DMSO was added to the JC-1 stain (freeze-dried) to form a JC-1 stock solution. Then, the JC-1 stock solution was diluted with the 1×assay buffer to form a JC-1 working solution (JC-1 mitochondrial specific stain). The dilution ratio of the JC-1 stock solution to the 1×assay buffer was 1:100.
First, 1×10^5 mouse neuroblastoma cells (ATCC CCL-131; hereinafter referred to as Neuro2a cells) were added into a six-well cell culture plate containing 2 mL of the above cell medium per well, and cultured at 37° C. for 24 hours. […]

PARP2 gene = assay: Antiaging-related gene expression in PBMC cells (qRT-PCR): PARP2; format: cell-based, human; conditions: 0.25 vol %, 24 hours, control group = 1.00
From the text: (§1) Herein, the tested antiaging-related genes are antiaging genes including CCT5 gene (Gene ID: 22948), CCT6A gene (Gene ID: 908), CCT7 gene (Gene ID: 10574), CCT8 gene (Gene ID: 10694), PARP2 gene (Gene ID: 10038), Parkin gene (Gene ID: 5071), Atg1 gene (Gene ID: 8408), Arg8 gene (Gene ID: 11345), FOX) gene (Gene ID: 2308), SIRT1 gene (Gene ID: 23411), […] gene (Gene ID: 55191), and MRPS3 gene (Gene ID: 64969). A medium used was an X-VIVOTM 15 serum-free hematopoietic cell medium (manufacturer: Lonza; product No.: 04-[…]) supplemented with 10 vol % of fetal bovine serum (FBS; brand: Gibco) and 1 vol % of penicillin/streptomycin (brand: Gibco), hereinafter referred to as a cell medium. […] Then, by using an ABI StepOnePlusTM Real-Time PCR system (Thermo Fisher Scientific Company, USA), KAPA SYBR FAST (purchased from Sigma Company, USA, No. 38220000000) and primers of Table 1 (SEQ ID NO: 1 to SEQ ID NO: 24), a quantitative real-time reverse transcription polymerase chain reaction was performed on the cDNA of each group to observe the expression levels of antiaging-related genes in PBMC cells. […] Herein, the quantitative real-time reverse transcription polymerase chain reaction of the cDNA can indirectly quantify an mRNA expression level of a gene, and then infer the expression level of protein encoded by the gene. […]

CCT5 gene = assay: Antiaging-related gene expression in PBMC cells (qRT-PCR): CCT5; format: cell-based, human; conditions: 0.25 vol %, 24 hours, control group = 1.00
From the text: as §1

CCT6A gene = assay: Antiaging-related gene expression in PBMC cells (qRT-PCR): CCT6A; format: cell-based, human; conditions: 0.25 vol %, 24 hours, control group = 1.00
From the text: as §1

CCT7 gene = assay: Antiaging-related gene expression in PBMC cells (qRT-PCR): CCT7; format: cell-based, human; conditions: 0.25 vol %, 24 hours, control group = 1.00
From the text: as §1

CCT8 gene = assay: Antiaging-related gene expression in PBMC cells (qRT-PCR): CCT8; format: cell-based, human; conditions: 0.25 vol %, 24 hours, control group = 1.00
From the text: as §1

Parkin gene = assay: Antiaging-related gene expression in PBMC cells (qRT-PCR): Parkin; format: cell-based, human; conditions: 0.25 vol %, 24 hours, control group = 1.00
From the text: Herein, the tested antiaging-related genes are antiaging genes including CCT5 gene (Gene ID: 22948), CCT6A gene (Gene ID: 908), CCT7 gene (Gene ID: 10574), CCT8 gene (Gene ID: 10694), PARP2 gene (Gene ID: 10038), Parkin gene (Gene ID: 5071), Atg1 gene (Gene ID: 8408), Arg8 gene (Gene ID: 11345), FOX) gene (Gene ID: 2308), SIRT1 gene (Gene ID: 23411), NADSYN gene (Gene ID: 55191), and MRPS3 gene (Gene ID: 64969).
A medium used was an X-VIVO™ 15 serum-free hematopoietic cell medium (manufacturer: Lonza; product No.: 04-418Q) supplemented with 10 vol % of fetal bovine serum (FBS; brand: Gibco) and 1 vol % of penicillin/streptomycin (brand: Gibco), hereinafter referred to as a cell medium. […]
PBMC cells were collected from each group, and RNA of each group was extracted with an RNA extraction reagent kit (purchased from Geneaid, Taiwan, China, Lot No. FC24015-G). […] Then, by using an ABI StepOnePlus™ Real-Time PCR system (Thermo Fisher Scientific Company, USA), KAPA SYBR FAST (purchased from Sigma Company, USA, No. 38220000000) and primers of Table 1 (SEQ ID NO: 1 to SEQ ID NO: 24), a quantitative real-time reverse transcription polymerase chain reaction was performed on the cDNA of each group to observe the expression levels of antiaging-related genes in PBMC cells. […]

Atg1 gene = assay: Antiaging-related gene expression in PBMC cells (qRT-PCR): Atg1; format: cell-based, human; conditions: 0.25 vol %, 24 hours, control group = 1.00
From the text: as §1

Atg8 gene = assay: Antiaging-related gene expression in PBMC cells (qRT-PCR): Atg8; format: cell-based, human; conditions: 0.25 vol %, 24 hours, control group = 1.00
From the text: as §1

FOXO gene = assay: Antiaging-related gene expression in PBMC cells (qRT-PCR): FOXO; format: cell-based, human; conditions: 0.25 vol %, 24 hours, control group = 1.00
From the text: as §1

SIRT1 gene = assay: Antiaging-related gene expression in PBMC cells (qRT-PCR): SIRT1; format: cell-based, human; conditions: 0.25 vol %, 24 hours, control group = 1.00
From the text: as §1

NADSYN gene = assay: Antiaging-related gene expression in PBMC cells (qRT-PCR): NADSYN; format: cell-based, human; conditions: 0.25 vol %, 24 hours, control group = 1.00
From the text: as §1

MRPS5 gene = assay: Antiaging-related gene expression in PBMC cells (qRT-PCR): MRPS5; format: cell-based, human; conditions: 0.25 vol %, 24 hours, control group = 1.00
From the text: as §1

NC(=O)c1ccc[n+]([C@@H]2O[C@H](COP(=O)([O-])O)[C@@H](O)[C@H]2O)c1 [nicotinamide mononucleotide]
relative ROS production ([1]; 24 h with 0.25 vol % yeast powder or 10 μL of 200 mM synthetic NMN, then hydrogen peroxide 1 hour, blank group = 100%, H2O2 control group 487.6%): 452.5% | decrease in relative ROS production versus H2O2 control (percentage points, blank = 100%) ([1]; hydrogen peroxide, versus control group 487.6%): 35.1% | relative JC-1 accumulation [2]: 42.93% | relative expression of the PARP2 gene (PARP2 gene): 0.67 | relative expression of the CCT5 gene (CCT5 gene): 1.55 | relative expression of the CCT6A gene (CCT6A gene): 1.62 | relative expression of the CCT7 gene (CCT7 gene): 1.0672 | relative expression of the CCT8 gene (CCT8 gene): 1.72 | relative expression of the Parkin gene (Parkin gene): 1.61 | relative expression of the Atg1 gene (Atg1 gene): 1.25 | relative expression of the Atg8 gene (Atg8 gene): 1.02 | relative expression of the FOXO gene (FOXO gene): 0.79 | relative expression of the SIRT1 gene (SIRT1 gene): 4.30 | relative expression of the NADSYN gene (NADSYN gene): 5.84 | relative expression of the MRPS5 gene (MRPS5 gene): 0.80
